Data taken from ChEMBL document CHEMBL6096670, “Design, synthesis and biological evaluation of novel β-carbolines as antitumor agents via targeting autophagy in colorectal cancer” (Eur J Med Chem, 2025).
The source made the active and inactive calls. No cut-off for these calls is given here.

What was measured:
786-0 = experiment: Antiproliferative activity against human 786-0 cells assessed as inhibition of cell growth incubated for 48 hrs by MTT assay; format: functional, cell-based; conditions: 786-0, 48 h
HepG2 = experiment: Antiproliferative activity against human HepG2 cells assessed as inhibition of cell growth incubated for 48 hrs by MTT assay; format: functional, cell-based; conditions: HepG2, 48 h
HCT-116 [1] = experiment: Induction of apoptosis in human HCT-116 assessed as late apoptotic cells at 1 uM incubated for 24 hrs Annexin V FITC/PI double staining based flow cytometry (reference value: 8.02 %); format: functional
HCT-116 [2] = experiment: Induction of apoptosis in human HCT-116 assessed as late apoptotic cells at 1 uM pretreated with Z-VAD-FMK for 30 mins followed by compound addition and measured after 24 hrs by Annexin V-FITC/PI double staining based flow cytometry (reference value: 7.43 %); format: functional
HCT-116 [3] = experiment: Antiproliferative activity against ATG7 knockout human HCT-116 cells assessed as inhibition of cell viability incubated for 24 hrs by CCK8 assay; format: functional, cell-based; conditions: HCT-116, 24 h
HCT-116 [4] = experiment: Induction of autophagy in ATG5 knockout human HCT-116 cells assessed as increase in LC3-II expression at 1 to 2 uM incubated for 24 hrs by Western blot analysis; format: functional, cell-based; conditions: dose 1-2 µM
[5] = Toxicity in female BALB/c mouse implanted with mouse CT26 cells assessed as change in heart morphology at 1 to 2 mg/kg administrated once every 3 days for 18 days by H&E staining based analysis; format: organism-based; conditions: in vivo, 432 h, dose 1-2 mg/kg, time 18 day
HCT-116 [6] = experiment: Antiproliferative activity against human HCT-116 assessed as inhibition of cell viability at 0.5 to 2 uM by CCK8 method; format: functional, cell-based; conditions: dose 0.5-2 µM, time <= 7.0 day
HCT-116 [7] = experiment: Induction of autophagy pathway in human HCT-116 cells at 1 uM incubated for 24 hrs by GSEA analysis; format: functional, cell-based
CT26 = experiment: Antitumor activity against mouse CT26 cells implanted in female BALB/c mouse assessed as reduction in tumor volume at 2 mg/kg administrated once every 3 days for 18 days; format: functional, organism-based; conditions: time 18.0 day

- IC50 (786-0): 3.86 µM
- IC50 (HepG2): 4.58 µM
- IC50 (HCT-116 [3]): 6.49 µM
Compound: CCN(CC)CCCNCc1cc2c3ccccc3n(CCCc3ccccc3)c2c(CNCCCN(CC)CC)n1
- Activity (HCT-116 [1]): 11.2%
- Activity (HCT-116 [2]): 12.4%
- Activity (HCT-116 [4]): inactive
- Activity [5]: Non-toxic
- Activity (HCT-116 [6]): Time-dependent-effect
- Activity (HCT-116 [7]): Active
- Activity (CT26): Active; Stronger Than 4Mg/Kg Of Cisplatin Treatment Group
